{"source": "patent US12564568B2", "about": "“PKC pathway in Parkinson's Disease” (CEDARS-SINAI MEDICAL CENTER, priority 2018, dated 2026)", "key": {"α-synuclein [1]": {"system": "α-synuclein", "assay": "Unilateral striatal injection in wild-type C57BL/6 mice, α-synuclein in striatum (western blot, IHC)", "details": "215 ng dose, 3 days post-treatment"}, "α-synuclein [2]": {"system": "α-synuclein", "assay": "α-synuclein protein level in day 30 iPSC-derived mDA (DaN) cultures after drug treatment (western blot, immunostaining)", "type": "cell-based, human", "details": "in vitro, single 24-hour dose"}, "[3]": {"assay": "Dose ranging study in mini-pig", "type": "in vivo", "details": "pigs", "method": "For dose ranging studies in rat and mini-pig. Repeated doses up to 15 ug/kg/day for 7 days were tolerated in rats, 5 ug/kg in pigs"}, "cleaved caspase 3 (CC3)": {"system": "cleaved caspase 3 (CC3)", "assay": "Cleaved caspase 3 in mDA cultures over PEP005 time-course (western blot)", "type": "cell-based, human", "details": "PD/EOSPD cultures, PEP005 treatment", "method": "Western blot: Cells were gently scraped off the plates, washed with PBS, centrifuged at 15000 RPM for 1 min, and dry pellets were frozen at −80° C. Samples were then thawed and lysed using 1×NETN buffer (20 mM Tris-HCl (pH 8.0), 100 mM NaCl, 0.5 mM EDTA and 0.5% NP-40) supplemented with phosphatase/protease inhibitor cocktail (MS-SAFE, Sigma-Aldrich). Lysates were sonicated in an automated cold bath sonicator for 20 mins using alternating 10 sec pulses followed by 10 sec rests. Samples were centrifuged for 20 min at 4° C. at 15000 RPM. Total soluble protein concentrations were measured using a Bradford assay (BIO-RAD). 4× Laemmli sample buffer (BIO-RAD 161-0774) was added to either 100 μg or 50 μg of total protein extracts and samples were boiled for 5 min. […] Membranes were blocked with Odyssey blocking buffer (LI-COR) and then incubated with primary antibodies for overnight at 4° C. or room temperature for 3 hours. Following incubation with dye-labeled secondary antibodies for 2 hours at room temperature, signals were visualized using an Odyssey Fc imaging system (LI-COR). […] Combined α-synuclein and p-PKCα expression plots were calculated by first normalizing bands to β-actin, then to the 02iCTR signal present in each blot. […] ROC plot and area under the curve was determined using R package ROCR to determine predicative probability percentages."}, "[4]": {"assay": "Repeat dose tox study in rats", "type": "in vivo, rat", "details": "up to 10 ug/kg/day for 7 days, IV tail vein injection", "method": "In a repeat dose tox study in rats—animals were given up to 10 ug/kg/day for 7 days by IV tail vein injection. […] In a repeat dose tox study in mini-pigs—animals were given up to 5 ug/kg/day IV approximately 1×/week."}, "DaN cultures": {"system": "DaN cultures", "assay": "LDH on drug treatment of DaN cultures", "type": "cell-based, human", "description": "It is likely that the toxicity of PEP is more specific to highly proliferative cells whereas the Inventors' differentiated neurons are largely post mitotoic."}, "[5]": {"assay": "In vitro blood plasma binding, rabbit", "type": "in vitro ADME", "description": "(§1) This may complicate IV delivery."}, "[6]": {"assay": "In vitro blood plasma binding, mini pig", "type": "in vitro ADME", "description": "as §1"}}, "note": "Entries after “also recorded” stand apart in the source; their conditions may differ."}
{"compound": "C/C=C(/C)C(=O)O[C@H]1C(C)=C[C@]23C(=O)[C@@H](C=C(CO)[C@@H](O)[C@]12O)[C@H]1[C@@H](C[C@H]3C)C1(C)C", "note": "[PEP005, ingenol-3-angelate]", "values": [{"measurement": "α-synuclein levels in striatum, injected (L) relative to contralateral side (R)", "setting": "α-synuclein [1]", "result": "significantly reduced; also recorded: reduces"}, {"measurement": "duration for which synuclein levels remained depressed", "setting": "α-synuclein [2]", "result": 168, "unit": "h"}, {"measurement": "tolerated repeated dose", "setting": "[3]", "result": "≤ 5", "unit": "µg/kg"}, {"measurement": "cleaved (active) caspase 3 (CC3)", "setting": "cleaved caspase 3 (CC3)", "result": "marked decrease"}, {"measurement": "cleaved (active) caspase 3 (CC3)", "setting": "cleaved caspase 3 (CC3); listed as PEP", "result": "marked decrease"}, {"measurement": "tolerability", "setting": "[4]", "result": "well tolerated"}, {"measurement": "LDH on drug treatment", "setting": "DaN cultures", "result": "nor do the Inventors see an increase"}, {"measurement": "p-PKCα signal (western blot)", "setting": "p-PKCα; control and PD cultures / all iPSC lines, 1 μM PEP005 for 3 days", "result": "completely ablate; also recorded: completely ablating; also recorded: clearly ablated"}, {"measurement": "p-PKCα expression, dose response", "setting": "p-PKCα; dose response study, 172iPD mDA culture", "result": "clear dose-response relationship"}, {"measurement": "p-PKCα levels at low PEP005 doses", "setting": "p-PKCα; dose response study, low doses", "result": "did not alter"}, {"measurement": "time post dose at which pPKCα levels were still depressed", "setting": "p-PKCα; in vitro, single 24-hour dose", "result": "≥ 240", "unit": "hours"}, {"measurement": "time until p-PKCα is degraded in response to drug treatment", "setting": "p-PKCα; time-course, control and PD cultures", "result": "≤ 24", "unit": "h"}, {"measurement": "plasma binding", "setting": "[5]", "result": "highly efficient plasma binding"}, {"measurement": "plasma binding", "setting": "[6]", "result": "highly efficient plasma binding"}]}
